Measured values reported in the supplement of paper PMC11061612.

Key:
Assay in all cases: Bliss excess, mean over the matrix (fraction); higher = more synergy
[1] = tested on: WM1552C (Melanoma)
In short: (§1)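 Bliss excess equals the observed combination effect minus the expected value EA + EB − EA·EB, where EA and EB are the effects of each agent alone. Combination Emax is the second-highest inhibition within the matrix. Inhibition was scaled from CellTiter-Glo 2.0 luminescence, with 0 set by vehicle wells and 1 by blank wells, after 72 hours of two-drug dosing of cells plated in 1536-well plates.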

[2] = tested on: JHH-2 (Hepatocellular Carcinoma)
In short: as §1

[3] = tested on: KYSE-220 (Esophageal Squamous Cell Carcinoma)
In short: as §1

[4] = tested on: NCI-H2087 (Lung Adenocarcinoma)
In short: as §1

[5] = tested on: A2780 (Ovarian Carcinoma)
In short: as §1

[6] = tested on: NCI-H1703 (Squamous Cell Lung Carcinoma)
In short: as §1

[7] = tested on: 769-P (Kidney Carcinoma)
In short: as §1

[8] = tested on: CGTH-W-1 (Thyroid Gland Carcinoma)
In short: as §1

[9] = tested on: HCC70 (Breast Carcinoma)
In short: as §1

[10] = tested on: NCI-H1651 (Lung Adenocarcinoma)
In short: as §1

[11] = tested on: NCI-H441 (Lung Adenocarcinoma)
In short: as §1

[12] = tested on: 22RV1 (Prostate Carcinoma)
In short: as §1

[13] = tested on: HCC1395 (Breast Carcinoma)
In short: as §1

[14] = tested on: MDA-MB-436 (Breast Carcinoma)
In short: as §1

[15] = tested on: SK-HEP-1 (Hepatocellular Carcinoma)
In short: as §1

[16] = tested on: MHH-ES-1 (Ewing's Sarcoma)
In short: as §1

[17] = tested on: IM-9 (Non-Cancerous)
In short: as §1

[18] = tested on: PEO1 (Ovarian Carcinoma)
In short: as §1

[19] = tested on: JHU-022 (Oral Cavity Carcinoma)
In short: as §1

[20] = tested on: LU-165 (Small Cell Lung Carcinoma)
In short: as §1

SMILES: CN(CCO)CC[C@H](CSc1ccccc1)Nc1ccc(S(=O)(=O)NC(=O)c2ccc(N3CCC([C@@H](O)c4ccccc4-c4ccc(Cl)cc4)CC3)cc2)cc1S(=O)(=O)C(F)(F)F [AZD4320] + Cc1cc2ncnn2cc1Nc1ncc2c(n1)n(C1CCOCC1)c(=O)n2C [AZD7648] (first compound max 1 µM, 7x7, partner max 10 µM)
- Bliss excess [1]: -0.0505
- Bliss excess [2]: -0.02
- Bliss excess [3]: -0.0165
- Bliss excess [4]: -0.0145
- Bliss excess [5]: -0.0469
- Bliss excess [6]: -0.0096
- Bliss excess [7]: -0.0572
- Bliss excess [8]: -0.0436
- Bliss excess [9]: -0.01
- Bliss excess [10]: -0.0454
- Bliss excess [11]: -0.043
- Bliss excess [12]: -0.0532
- Bliss excess [13]: -0.037
- Bliss excess [14]: -0.0488
- Bliss excess [15]: -0.051
- Bliss excess [16]: -0.0097
- Bliss excess [17]: 0.0473
- Bliss excess [18]: -0.0389
- Bliss excess [19]: -0.0477
- Bliss excess [20]: 0.0018

SMILES: CN(CCO)CC[C@H](CSc1ccccc1)Nc1ccc(S(=O)(=O)NC(=O)c2ccc(N3CCC([C@@H](O)c4ccccc4-c4ccc(Cl)cc4)CC3)cc2)cc1S(=O)(=O)C(F)(F)F [AZD4320] + Cn1cnc2c(F)c(Nc3ccc(Br)cc3Cl)c(C(=O)NOCCO)cc21 [Selumetinib] (first compound max 1 µM, 7x7, partner max 3 µM)
- Bliss excess [1]: 0.0035
- Bliss excess [2]: -0.0267
- Bliss excess [3]: 0.043
- Bliss excess [4]: 0.0142
- Bliss excess [5]: 0.0111
- Bliss excess [6]: 0.0103
- Bliss excess [7]: 0.0392
- Bliss excess [8]: 0.0043
- Bliss excess [9]: 0.152
- Bliss excess [10]: 0.0238
- Bliss excess [11]: 0.0193
- Bliss excess [12]: 0.136
- Bliss excess [13]: 0.012
- Bliss excess [14]: -0.0388
- Bliss excess [15]: 0.0008
- Bliss excess [16]: -0.0124
- Bliss excess [17]: 0.051
- Bliss excess [18]: -0.0044
- Bliss excess [19]: 0.0374
- Bliss excess [20]: -0.0155

SMILES: CN(CCO)CC[C@H](CSc1ccccc1)Nc1ccc(S(=O)(=O)NC(=O)c2ccc(N3CCC([C@@H](O)c4ccccc4-c4ccc(Cl)cc4)CC3)cc2)cc1S(=O)(=O)C(F)(F)F [AZD4320] + Nc1ccn([C@@H]2O[C@H](CO)[C@@H](O)C2(F)F)c(=O)n1 [Gemcitabine] (first compound max 1 µM, 7x7, partner max 0.3 µM)
- Bliss excess [1]: 0.0167
- Bliss excess [2]: -0.0302
- Bliss excess [3]: 0.0369
- Bliss excess [4]: 0.0051
- Bliss excess [5]: -0.0321
- Bliss excess [6]: -0.0482
- Bliss excess [7]: -0.0672
- Bliss excess [8]: 0.0579
- Bliss excess [9]: 0.103
- Bliss excess [10]: 0.0198
- Bliss excess [11]: 0.0333
- Bliss excess [12]: -0.0286
- Bliss excess [13]: -0.0457
- Bliss excess [14]: 0.0024
- Bliss excess [15]: -0.108
- Bliss excess [16]: 0.0486
- Bliss excess [17]: 0.043
- Bliss excess [18]: -0.0368
- Bliss excess [19]: 0.0202
- Bliss excess [20]: 0.0836

SMILES: COc1nnc2ccc(N3CCC(c4ccc(OCCN5CCN(C)C(=O)[C@H]5C)cc4)CC3)nn12 [AZD5153] + CN(CC[C@H](CSC1=CC=CC=C1)NC2=C(C=C(C=C2)S(=O)(=O)NC(=O)C3=CC=C(C=C3)N4CCC(CC4)[C@H](C5=CC=CC=C5C6=CC=C(C=C6)Cl)O)S(=O)(=O)C(F)(F)F)CCO [AZD4320] (first compound max 1 µM, 7x7, partner max 1 µM)
- Bliss excess [16]: 0.0258

SMILES: Cc1cc2ncnn2cc1Nc1ncc2c(n1)n(C1CCOCC1)c(=O)n2C [AZD7648] + C=CCn1c(=O)c2cnc(Nc3ccc(N4CCN(C)CC4)cc3)nc2n1-c1cccc(C(C)(C)O)n1 [AZD1775] (first compound max 10 µM, partner max 1 µM)
- Bliss excess [1]: -0.0111
- Bliss excess [2]: -0.0469
- Bliss excess [3]: -0.0222
- Bliss excess [4]: -0.0176
- Bliss excess [5]: 0.0088
- Bliss excess [6]: -0.0283
- Bliss excess [7]: -0.0082
- Bliss excess [8]: 0.0025
- Bliss excess [9]: 0.0731
- Bliss excess [10]: -0.0812
- Bliss excess [11]: 0.0059
- Bliss excess [12]: -0.0214
- Bliss excess [13]: -0.0571
- Bliss excess [14]: -0.0189
- Bliss excess [15]: 0.0387
- Bliss excess [16]: -0.0116
- Bliss excess [17]: -0.0659
- Bliss excess [18]: 0.0164
- Bliss excess [19]: -0.0239
- Bliss excess [20]: 0.0491

SMILES: CC(=O)c1c(C)c2cnc(Nc3ccc(N4CCNCC4)cn3)nc2n(C2CCCC2)c1=O [Palbociclib] + CN(CC[C@H](CSC1=CC=CC=C1)NC2=C(C=C(C=C2)S(=O)(=O)NC(=O)C3=CC=C(C=C3)N4CCC(CC4)[C@H](C5=CC=CC=C5C6=CC=C(C=C6)Cl)O)S(=O)(=O)C(F)(F)F)CCO [AZD4320] (first compound max 10 µM, 7x7, partner max 1 µM)
- Bliss excess [16]: 0.0028

SMILES: N#Cc1cnc(Nc2cc(NC[C@H]3CNCCO3)c(C(F)(F)F)cn2)cn1 [SRA737] + Nc1ccn([C@@H]2O[C@H](CO)[C@@H](O)C2(F)F)c(=O)n1 [Gemcitabine] (first compound max 10 µM, 7x7, partner max 0.3 µM)
- Bliss excess [1]: -0.0206
- Bliss excess [2]: -0.0087
- Bliss excess [3]: -0.0155
- Bliss excess [4]: 0.0059
- Bliss excess [5]: 0.0099
- Bliss excess [6]: -0.012
- Bliss excess [7]: -0.0313
- Bliss excess [8]: 0.0472
- Bliss excess [10]: 0.0124
- Bliss excess [11]: -0.0336
- Bliss excess [12]: -0.0663
- Bliss excess [13]: 0.0226
- Bliss excess [14]: -0.0067
- Bliss excess [15]: -0.0002
- Bliss excess [16]: 0.0613
- Bliss excess [17]: 0.0254
- Bliss excess [18]: 0.113
- Bliss excess [19]: 0.008
- Bliss excess [20]: -0.0375

SMILES: C[C@@H](c1ccc2nccn2c1)n1nnc2ncc(-c3cnn(C)c3)nc21 [Savolitinib] + CN(CC[C@H](CSC1=CC=CC=C1)NC2=C(C=C(C=C2)S(=O)(=O)NC(=O)C3=CC=C(C=C3)N4CCC(CC4)[C@H](C5=CC=CC=C5C6=CC=C(C=C6)Cl)O)S(=O)(=O)C(F)(F)F)CCO [AZD4320] (first compound max 1 µM, 7x7, partner max 1 µM)
- Bliss excess [16]: -0.0154
